{"source": "patent US5962466A", "about": "“Reduction of hair growth using inhibitors of matrix metalloproteinases” (priority 1998, dated 1999)", "key": {"[1]": {"biological_target": "T1, MMP-2 (72 kD collagenase) (Mesocricetus auratus, UniProt A0A1U7R1N2)", "T1 construct": "Flank organ hair follicles were removed from untreated hamsters and homogenized in a buffer; from tissue; host or cells: hamster flank organ hair follicle homogenate", "T1 sequence (A0A1U7R1N2 30-662)": "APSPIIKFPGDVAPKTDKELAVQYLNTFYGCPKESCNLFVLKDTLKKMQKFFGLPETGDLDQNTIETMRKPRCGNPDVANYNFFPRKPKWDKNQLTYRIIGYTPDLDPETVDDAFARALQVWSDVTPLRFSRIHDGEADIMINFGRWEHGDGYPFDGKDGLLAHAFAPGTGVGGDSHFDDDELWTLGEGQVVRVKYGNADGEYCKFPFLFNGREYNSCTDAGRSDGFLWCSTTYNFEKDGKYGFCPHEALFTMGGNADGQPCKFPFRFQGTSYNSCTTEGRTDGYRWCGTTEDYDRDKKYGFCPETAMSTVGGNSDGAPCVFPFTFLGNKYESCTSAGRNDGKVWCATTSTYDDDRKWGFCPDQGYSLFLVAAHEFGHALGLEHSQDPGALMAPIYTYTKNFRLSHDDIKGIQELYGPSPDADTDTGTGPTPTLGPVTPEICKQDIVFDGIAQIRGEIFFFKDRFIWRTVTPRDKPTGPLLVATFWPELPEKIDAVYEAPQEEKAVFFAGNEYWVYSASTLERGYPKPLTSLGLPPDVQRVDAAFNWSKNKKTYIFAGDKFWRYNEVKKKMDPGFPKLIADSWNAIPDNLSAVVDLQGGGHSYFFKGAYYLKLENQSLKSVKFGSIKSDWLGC", "test": "Zymographic assay of MMP-2 in flank organ hair follicle homogenates", "assay_type": "biochemical, hamster", "conditions": "read-out: Percent Inhibition of Flank Organ MMP-2 Collagenase Activity", "experimental": "(§1) The matrix metalloproteinases MMP-2 (72 kD collagenase) and MMP-9 (92 kD collagenase) were assayed in flank organ hair follicle homogenates using a zymographic assay. Zymography is an electrophoretic technique used to identify proteolytic activity in enzymes separated in polyacrylamide gels under nondenaturing conditions (Kleiner and Stetler-Stevenson, Analytical Biochemistry 218: 325-329, 1994). Flank organ hair follicles were removed from untreated hamsters and homogenized in a buffer containing 25 mM Tris, pH 7.5, and 50 mM sucrose. Samples of the homogenate were added to an equal volume of zymogram sample buffer containing 63 mM Tris-HCl, pH 6.8, 10% glycerol, 2% SDS, and 0.0025% bromophenol blue. (Note: all buffers and acrylamide gels were obtained from Novex, San Diego, Calif.). The samples were incubated for 10 minutes at room temperature and then loaded onto a precast 10% Tris-Glycine gel with 0.1% gelatin incorporated throughout the gel. The gel was electrophoresed at 125 constant volts for about 90 minutes. The gel was incubated for 30 minutes in renaturing buffer consisting of 2.5% triton X-100 followed by incubation in developing buffer which contained 10 mM Tris-base, 40 mM Tris-HCl, 200 mM NaCl, 5 mM CaCl2, and 0.02% Brij 35. The developing buffer was decanted after 30 minutes and replaced with fresh buffer for incubation overnight.\n(§2) For inhibition experiments, the inhibitor was included in the renaturing and development buffer steps. The gel was stained with Coomassie blue 0.25% for 1 hour and then destained overnight. Transparent bands were visualized against a blue background. MMP-2 and MMP-9 standards were supplied by Oncologix (Gaithersburg, Md.). The relative degree of digestion, representing collagenase activity, was quantitated by scanning photographs of the gels using Adobe Photoshop (Adobe Systems Inc., Mountain View, Calif.) and IPLab Gel (Signal Analytics, Vienna, Va.) software. The images were digitally inverted so that the integrations of bands would be reported as positive values. This method of analysis was standardized with respect to protein concentration."}, "flank organ hair growth": {"system": "flank organ hair growth", "test": "Golden Syrian hamster assay (flank organ hair mass)", "assay_type": "in vivo", "conditions": "topical, 13 applications", "excerpt": "Male intact Golden Syrian hamsters are considered acceptable models for human beard hair growth in that they display oval shaped flank organs, one on each side, each about 8 mm. in major diameter, which grow thick black and coarse hair similar to human beard hair. These organs produce hair in response to androgens in the hamster. To evaluate the effectiveness of a composition including an inhibitor of an MMP, the flank organs of each of a group of hamsters are depilated by applying a thioglycolate based chemical depilatory (Surgex). To one organ of each animal 10 μl. of vehicle alone once a day is applied, while to the other organ of each animal an equal amount of vehicle containing an inhibitor of a matrix metalloproteinase is applied. After thirteen applications (one application per day for five days a week), the flank organs are shaved and the amount of recovered hair (hair mass) from each is weighed. Percent-reduction of hair growth is calculated by subtracting the hair mass (mg) value of the test compound treated side from the hair mass value of the vehicle treated side; the delta value obtained is then divided by the hair mass value of the vehicle treated side, and the resultant number is multiplied by 100.\nThe above-described assay will be referred to herein as the \"Golden Syrian hamster\" assay."}, "[2]": {"biological_target": "T2, MMP-9 (92 kD collagenase) (Mesocricetus auratus, UniProt A0A1U7R3J7)", "T2 construct": "Flank organ hair follicles were removed from untreated hamsters and homogenized in a buffer; from tissue; host or cells: hamster flank organ hair follicle homogenate", "T2 sequence (A0A1U7R3J7 20-718)": "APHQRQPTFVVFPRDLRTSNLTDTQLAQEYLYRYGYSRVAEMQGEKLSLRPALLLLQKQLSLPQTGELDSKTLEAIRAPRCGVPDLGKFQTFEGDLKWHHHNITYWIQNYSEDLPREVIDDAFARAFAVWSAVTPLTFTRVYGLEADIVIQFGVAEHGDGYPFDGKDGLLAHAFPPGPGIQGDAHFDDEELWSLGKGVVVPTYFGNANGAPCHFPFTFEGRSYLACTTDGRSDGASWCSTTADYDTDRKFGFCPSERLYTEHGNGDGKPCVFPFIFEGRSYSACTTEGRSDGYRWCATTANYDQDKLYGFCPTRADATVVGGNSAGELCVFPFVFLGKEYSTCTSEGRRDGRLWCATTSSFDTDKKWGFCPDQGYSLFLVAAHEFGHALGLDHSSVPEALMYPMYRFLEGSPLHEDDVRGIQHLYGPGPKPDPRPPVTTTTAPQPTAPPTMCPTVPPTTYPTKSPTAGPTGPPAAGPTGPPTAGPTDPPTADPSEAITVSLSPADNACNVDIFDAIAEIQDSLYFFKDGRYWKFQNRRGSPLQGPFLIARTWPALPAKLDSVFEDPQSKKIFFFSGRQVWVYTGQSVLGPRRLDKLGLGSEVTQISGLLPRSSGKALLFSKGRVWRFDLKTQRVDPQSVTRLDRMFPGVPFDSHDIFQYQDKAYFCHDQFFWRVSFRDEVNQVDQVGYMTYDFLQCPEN", "test": "Zymographic assay of MMP-9 in flank organ hair follicle homogenates", "assay_type": "biochemical, hamster", "conditions": "read-out: Percent Inhibition of Flank Organ MMP-9 Collagenase Activity", "experimental": "as §1, §2"}}, "note": "Read-outs that look alike come from different tables or passages of the source."}
{"smiles": "C[C@H]1c2cccc(O)c2C(O)=C2C(=O)[C@]3(O)C(O)=C(C(N)=O)C(=O)[C@@H](N(C)C)[C@@H]3[C@@H](O)[C@@H]21", "note": "[Doxycycline, α-6-deoxy-5-hydroxytetracycline]", "values": [{"measurement": "inhibition at 100 µM", "setting": "[1]; concentration 0.1 mM", "value": 89, "unit": "%"}, {"measurement": "inhibition at 500 µM", "setting": "[1]; concentration 0.5 mM", "value": 100, "unit": "%"}, {"measurement": "% Reduction of hair mass", "setting": "flank organ hair growth; dose 10%, Vehicle A, pH 5.5", "value": "27 ± 9", "unit": "%"}, {"measurement": "Hair Mass (mg) Treated", "setting": "flank organ hair growth; dose 10%, Vehicle A, pH 5.5", "value": "1.73 ± .22 mg"}, {"measurement": "inhibition at 100 µM", "setting": "[2]; concentration 0.1 mM", "value": 28, "unit": "%"}, {"measurement": "inhibition at 500 µM", "setting": "[2]; concentration 0.5 mM", "value": 100, "unit": "%"}]}
{"smiles": "CN(C)c1ccc(O)c2c1C[C@H]1C[C@H]3[C@H](N(C)C)C(O)=C(C(N)=O)C(=O)[C@@]3(O)C(O)=C1C2=O", "note": "[Minocycline, 7-dimethylamino-6-dimethyl-6-deoxytetracycline]", "values": [{"measurement": "inhibition at 1000 µM", "setting": "[1]; concentration 1 mM", "value": 100, "unit": "%"}, {"measurement": "% Reduction of hair mass", "setting": "flank organ hair growth; dose 10%, Vehicle A, pH 4.0", "value": "63 ± 6", "unit": "%"}, {"measurement": "Hair Mass (mg) Treated", "setting": "flank organ hair growth; dose 10%, Vehicle A, pH 4.0", "value": "0.82 ± .11 mg"}, {"measurement": "inhibition at 1000 µM", "setting": "[2]; concentration 1 mM", "value": 100, "unit": "%"}]}
{"smiles": "C=C1c2cccc(O)c2C(=O)C2=C(O)[C@]3(O)C(=O)C(C(N)=O)=C(O)[C@@H](N(C)C)[C@@H]3[C@@H](O)[C@H]12", "note": "[Methacycline, 6-methylene oxytetracycline]", "values": [{"measurement": "inhibition at 1000 µM", "setting": "[1]; concentration 1 mM", "value": 100, "unit": "%"}, {"measurement": "% Reduction of hair mass", "setting": "flank organ hair growth; dose 10%, Vehicle A, pH 4.0", "value": "57 ± 9", "unit": "%"}, {"measurement": "Hair Mass (mg) Treated", "setting": "flank organ hair growth; dose 10%, Vehicle A, pH 4.0", "value": "0.68 ± .11 mg"}, {"measurement": "inhibition at 1000 µM", "setting": "[2]; concentration 1 mM", "value": 100, "unit": "%"}]}
{"smiles": "CN(C)C1C(O)=C(C(N)=O)C(=O)C2(O)C(O)=C3C(=O)c4c(O)cccc4C(C)(O)C3CC12", "note": "(stereo not drawn) [Tetracycline, 4-(dimethylamino)-1,4,4a,5,5a,6,11,12a-octahydro-3,6,10,12,12a-pentahydroxy-6-methyl-1,11-dioxo-2-naphthacenecarboxamide]", "values": [{"measurement": "inhibition at 100 µM", "setting": "[1]", "value": 31, "unit": "%"}, {"measurement": "inhibition at 500 µM", "setting": "[1]", "value": 64, "unit": "%"}, {"measurement": "inhibition at 1000 µM", "setting": "[1]", "value": 100, "unit": "%"}, {"measurement": "% Reduction of hair mass", "setting": "flank organ hair growth; dose 10%, Vehicle B, pH 4.5", "value": "56 ± 9", "unit": "%"}, {"measurement": "Hair Mass (mg) Treated", "setting": "flank organ hair growth; dose 10%, Vehicle B, pH 4.5", "value": "0.67 ± .10 mg"}, {"measurement": "inhibition at 100 µM", "setting": "[2]", "value": 49, "unit": "%"}, {"measurement": "inhibition at 500 µM", "setting": "[2]", "value": 70, "unit": "%"}, {"measurement": "inhibition at 1000 µM", "setting": "[2]", "value": 100, "unit": "%"}]}
{"smiles": "c1cnc2c(c1)ccc1cccnc12", "note": "[1,10-Phenanthroline, 1,10-phenanthroline]", "values": [{"measurement": "inhibition at 100 µM", "setting": "[1]", "value": 100, "unit": "%"}, {"measurement": "inhibition at 500 µM", "setting": "[1]", "value": 100, "unit": "%"}, {"measurement": "% Reduction of hair mass", "setting": "flank organ hair growth; dose 5%, Vehicle A, pH 7.0", "value": "45 ± 9", "unit": "%"}, {"measurement": "Hair Mass (mg) Treated", "setting": "flank organ hair growth; dose 5%, Vehicle A, pH 7.0", "value": "1.40 ± .24 mg"}, {"measurement": "inhibition at 100 µM", "setting": "[2]; concentration 0.1 mM", "value": 100, "unit": "%"}, {"measurement": "inhibition at 500 µM", "setting": "[2]; concentration 0.5 mM", "value": 100, "unit": "%"}]}
{"smiles": "O=Cc1ccc(O)c(O)c1", "note": "[Protocatechuic aldehyde, 3,4-dihydroxybenzaldehyde]", "values": [{"measurement": "% Reduction of hair mass", "setting": "flank organ hair growth; dose 10%, Vehicle A, pH 3.5", "value": "32 ± 9", "unit": "%"}, {"measurement": "Hair Mass (mg) Treated", "setting": "flank organ hair growth; dose 10%, Vehicle A, pH 3.5", "value": "0.92 ± .13 mg"}]}
